Results as given in US5877185A, “Synergistic compositions useful as anti-tumor agents” (priority 1995, dated 1999).

Legend:
[1] = test system: Hep-G2; test: cytotoxicity of INO2 BA with and without BSO, Hep-G2; assay type: cell-based; settings: Homo sapiens
Method: (§1) The concentration of BSO was 1 mM for all cell lines except HT 144, where the concentration was 0.25 mM. Cells were seeded in the recommended growth medium at a density of 1.5×10^4 cell/cm^2 into 2 cm^2 wells. Drugs were added simultaneously 4 hours after seeding, and incubation was continued for 48 hours at 37° C. in a 5% CO2 atmosphere. For assessment of drug effects cells were detached by trypsinization and counted in a hemacytometer.
(§2) Cell lines Nos. 1-4 were obtained from Dr. C. Benz, University of California, San Francisco. MDA 468 and MCF-7 human mammary cancer lines, MCF-7-B-ADR drug-resistant mammary cancer line, Du 145 drug-resistant human prostate cancer line, HT 144 human melanoma cell line, Hep-G2 human hepatocellular carcinoma line, and PC-12 rat pheochromocytoma line were obtained from the University of California Cell Culture Facility.

[2] = test system: MCF-7-B-ADR; test: cytotoxicity of INO2 BA with and without BSO, MCF-7-B-ADR; assay type: cell-based; settings: Homo sapiens
Method: as §1, §2

[3] = test system: SIV 23686 (AZT-resistant); test: AZT-resistant SIV propagation (syncytia formation), SIV 23686; assay type: cell-based; settings: for Syncytia: BSO 0
Method: CEM × 174 (3 × 10^5 /ml) were infected with equal doses o
SIVmac239 or virus isolates from SIVmac239infected rhesus macaques (MMU
23686, 22803). Three days postinfection, INO2 BA concentrations
ranging from 0 to 300 μM with or without BSO were added, and incubated
for an additional 3 days. Cell cultures were then examined for syncytia
formation. The number of syncytia in cell cultures was counted in
arbitration fields under 40× magnification and scored as follows: […]

[4] = test system: MCF-7; test: cytotoxicity of INO2 BA with and without BSO, MCF-7; assay type: cell-based; settings: Homo sapiens
Method: as §1, §2

[5] = test system: 855-2 cells; test: metabolic conversion of INO2 BA to INH2 BA by 855-2 cells; assay type: in vitro ADME; settings: 120 μM INO2 BA, 18 hr, 37° C.
Method: (§3) The cell metabolites of INO2 BA metabolism were identified. A suspension of 855-2 cells (6), 150×10^6 cells in ml of RPMI-1640 medium, was dosed with INO2 BA to a concentration of 120 μM, incubated at 37° C. for 18 hr, and then freeze-dried, extracted 3 times with EtOH (10 ml each time) for 30 min and centrifuged. The extract was rotary evaporated to dryness, redissolved in EtOH (3.0 ml), microfuged to remove small particles, and aliquots (200 μl) injected into HPLC. In control experiments, instead of incubating the drug-dosed cell suspension it was immediately frozen, freeze-dried and extracted. HPLC analyses were performed essentially as reported earlier, except the pH of the buffers was 4.3. Buki et al., FEBS Lett. 290:181-185 (1991). Upon sample injection the gradient started from 100%A to 100%B in 30 min, to 50%B/50%C in 15 min, to 100%C in 3 min. Retention times of synthetic standards were: 4-iodo-3-hydroxylaminobenzamide 18.7 min; 4-iodo-3-aminobenzamide ("INH2 BA") 24.7 min; INO2 BA 34.5 min; INOBA 36.5 min and 6,6'-diiodo-3,3'-dicarbamoylazoxybenzene 46.9 min.

[6] = as above; assay type: in vitro ADME; settings: 855-2 cells; 120 μM INO2 BA, 37° C.; read-out: rate of reduction of the nitro to the amino end-product
Method: as §3

[7] = test system: HIV-1 (MN strain) virions; test: zinc loss from treatment of HIV-1 virions with NOBA; assay type: biochemical
Method: Experiments were performed to determine if NOBA is capable of ejecting zinc from intact virions. HIV-1 (MN strain) was produced, purified and concentrated as described in Bess et al., J. Virol. 66:840-847 (1992). The concentrated virus was diluted to 60 times that of culture fluid in TNE buffer (0.01M Tris-HCl, 0.1M NaCl, 1 mM EDTA, pH 7.2) and incubated with 3000 or 6000 μM NOBA at 37° C. The virus was then pelleted and washed with TNE buffer to remove weakly bound zinc. The quantity of zinc in the resulting viral pellets was determined as described in Bess et al., J. Virol. 66:840-847 (1992).

[8] = test system: human immunodeficiency virus HIV-1; settings: human lymphocytes; cited from earlier work
[9] = test system: HIV-1 (LAV strain); test: in vitro anti-retroviral testing (HIV-1 inactivation) in human peripheral lymphocytes (PBL); assay type: cell-based
Method: Both 6-NOBP and NOBA were tested on viral growth of HIV-1 (LAV strain) in phytohemagglutinin-stimulated human peripheral lymphocytes (PBL). An HIV-1 stock having an infectivity titer of 100,000 TCID50 was incubated for 30 min. at 22° C. with either of the drugs. Control HIV samples, containing no drugs, were incubated in the same manner. […] At the end of this incubation cultures were assayed for productive infection by an immunoassay for HIV-1 antigens and by reverse transcriptase as described in McDougal et al., J. Immunol. Methods 76:171-183 (1985). Virus titers were expressed as percentile values (percent infected cultures) compared to the controls, containing HIV dilutions which were not preincubated with the C-nitroso drugs. In a separate series of experiments, HIV-1 dilutions and C-nitroso drugs (see upper abscissa) were not preincubated but were added simultaneously to lymphocytes in exactly the same concentrations as described previously (i.e., following preincubation) and viral growth monitored 9 days later.

[10] = test system: AZT-resistant rhesus macaque (MMU-23740)-derived SIV; settings: cited from earlier work
[11] = test system: L-1210 Murine Leukemia Cells; test: effect of nitroso- and nitro-compounds in L-1210 murine leukemia cells (suspension); assay type: cell-based; settings: drug exposure 18 hours
Method: II. I50 and LD100 Values for Nitroso- and Nitro-Compounds in (A) Mammary Cancer Cells (monolayer cultures) and in (B) L-1210 Murine Leukemia Cells (suspension culture).
Cells were seeded at 5×10^4 to 2×10^5 /ml; drugs were added at the time of seeding; drug exposure was for 18 hours.

[12] = test system: neutrophil granulocytes; settings: tumoricidal concentrations; cited from earlier work

NC(=O)c1ccc(I)c([N+](=O)[O-])c1 [INO2 BA, 4-iodo-3-nitrobenzamide]
IC100 ([1]; HepG2, 48 h, read-out: LD100): 200 µM | IC50 ([1]; HepG2, INO2 BA alone, 48 hours, read-out: I50): 120 µM | IC100 ([2]; 48 h, read-out: LD100): 220 µM | IC50 ([2]; INO2 BA alone, 48 hours, read-out: I50): 90 µM | Syncytia ([3]; INO2 BA 25 μM): ++ (10-20) | Syncytia ([3]; INO2 BA 50 μM): ++ (10-20) | Syncytia ([3]; INO2 BA 100 μM): ++ (10-20) | Syncytia ([3]; INO2 BA 200 μM): + (1-9) | Syncytia ([3]; INO2 BA 300 μM): - (0) | IC100 ([3]; Simian immunodeficiency virus, 72 h, read-out: INO2 BA concentration abolishing cell fusion (syncytia)): > 200 µM | inhibitory concentration of INO2 BA (syncytia) ([3]; with 0.01 mM BSO): 50 µM | IC100 ([4]; MCF7, 48 h, read-out: LD100): 200 µM | IC50 ([4]; MCF7, INO2 BA alone, 48 hours, read-out: I50): 100 µM | identified metabolite [5]: the only identified metabolite was INH2 BA | metabolised at 18 h, 120 µM [6]: 2.2 ± 0.2%

NC(=O)c1cccc(N=O)c1 [NOBA, 3-nitrosobenzamide]
Zinc Loss ([7]; 3,000 μM NOBA, 2 hr): 52% | Zinc, NOBA-Treated Sample ([7]; 3,000 μM NOBA, 2 hr, control 0.21): 0.11 µg/mL | Zinc Loss ([7]; 6,000 μM NOBA, 4 hr): 83% | Zinc, NOBA-Treated Sample ([7]; 6,000 μM NOBA, 4 hr, control 0.24): 0.04 µg/mL | loss of viral proteins in the pellet ([7]; 3000 or 6000 μM NOBA): No significant loss | inhibition of HIV-1 infection [8]: inhibit infection | TCID50 (calculated infectious titer after treatment) ([9]; 100 μM): 11 TCID50 | decrease of relative amount of infectious virus available to cause 50% infected cultures ([9]; 30 min. at 22° C., FIG. 7A): 4 log units | log reduction at 100 µM ([9]; Human immunodeficiency virus 1, Lymphocyte, 0.5 h, 100 μM, of TCID50, read-out: Decrease): 4.2 | inhibition at 100 µM ([9]; Human immunodeficiency virus 1, Lymphocyte, 100 μM): > 100% | inhibition of infectious cycle [10]: equally inhibited | I50 [11]: 7.5 nanomoles/10^5 cells | LD100 [11]: 15 nanomoles/10^5 cells | effect on superoxide formation by neutrophil granulocytes [12]: relatively harmless
